For data set [1], the target named is Neuropilin-1 (Rattus norvegicus) (UniProt Q9QWJ9). The data set can be described thus: Inhibition of (bt)-VEGF165 binding to purified recombinant rat NRP1/Fc chimera at 100 uM measured after overnight incubation by ELISA method.
Data set [2] shares this target. As to the kind of experiment: Inhibition of (bt)-VEGF165 binding to purified recombinant rat NRP1/Fc chimera at 0.3 uM measured after overnight incubation by ELISA method.
Data set [3] shares this target. As to the kind of experiment: Inhibition of (bt)-VEGF165 binding to purified recombinant rat NRP1/Fc chimera measured after overnight incubation by ELISA method relative to A7R. (In an ELISA, binding on a coated surface is turned into a signal by an enzyme label.)
The target is the same in data set [4]. As to the kind of experiment: Inhibition of (bt)-VEGF165 binding to purified recombinant rat NRP1/Fc chimera at 0.01 uM measured after overnight incubation by ELISA method.
The subject of data set [5] is MDA-MB-231. As to the kind of experiment: Toxicity against human MDA-MB-231 assessed as reduction in cell viability at 200 to 1000 uM incubated for 96 hrs by MTS assay. Type of data set: cell-based. As to conditions: mda-mb-231, 96 h. On the technique in general: Tetrazolium assays rely on reduction of a dye to a coloured formazan, in cell work by metabolically active cells.

Data set [6] concerns the target Neuropilin-1 (Rattus norvegicus) (UniProt Q9QWJ9). As to the kind of experiment: Inhibition of (bt)-VEGF165 binding to purified recombinant rat NRP1/Fc chimera at 10 uM measured after overnight incubation by ELISA method.
Data set [7] has the same target. The data set can be described thus: Inhibition of (bt)-VEGF165 binding to purified recombinant rat NRP1/Fc chimera at 0.1 uM measured after overnight incubation by ELISA method.
Data set [8] shares this target. The data set can be described thus: (§1) Inhibition of (bt)-VEGF165 binding to purified recombinant rat NRP1/Fc chimera measured after overnight incubation by ELISA method.
The target in the next data set is Neuropilin-1 (Rattus norvegicus, UniProt Q9QWJ9). The description is as §1.
In data set [9] the test system is HUVEC. The data set can be described thus: Toxicity against HUVEC assessed as reduction in cell viability at 200 to 1000 uM incubated for 96 hrs by MTS assay. The class given is cell-based. The settings on record: human.
Data set [10] deals with Neuropilin-1 (Rattus norvegicus) (UniProt Q9QWJ9). The data set can be described thus: Inhibition of (bt)-VEGF165 binding to purified recombinant rat NRP1/Fc chimera at 3 uM measured after overnight incubation by ELISA method.
Data set [11] shares this target. As to the kind of experiment: Inhibition of (bt)-VEGF165 binding to purified recombinant rat NRP1/Fc chimera at 1 uM measured after overnight incubation by ELISA method.
Data set [12] relates to HUVEC. As to the kind of experiment: Toxicity against HUVEC assessed as reduction in cell viability at 200 to 1000 uM incubated for 24 hrs by MTS assay. The class given is cell-based. As to conditions: human.
Data set [13] has as its system MDA-MB-231. The data set can be described thus: Toxicity against human MDA-MB-231 assessed as reduction in cell viability at 200 to 1000 uM incubated for 24 hrs by MTS assay. The class given is cell-based. As to conditions: mda-mb-231, 24 h.

Active and inactive are the calls of the source. The rule behind the calls is not given here. Positions of bridges follow the written chain, without caps; N, C: chain ends. Residues, ends and D or L forms follow the SMILES beside them.

By inhibition is commonly meant the share of the control response that was lost under treatment. For orientation: IC50 means the concentration that gives 50% inhibition. As to `N=C(N)NCCC[C@H](NC(=O)[C@@H]1CCC(=O)NCCCC[C@H](N)C(=O)N2CCC[C@H]2C(=O)N1)C(=O)O` (H-KPER-OH; lactam 1-3), the inhibition was 100% in [1]; 61.7% in data set [2]; 3.1% in data set [4]; 94.7% in [6]; 35.5% in data set [7]; “Dose-dependent effect” in [8]. Also, the inhibition is 86.7% in data set [10] and 76.5% in data set [11]. In addition, in data set [3], the Ratio IC50 is below 30. Moreover, the Activity entry with MDA-MB-231 [5], in the data set with HUVEC [9], with HUVEC [12] and with MDA-MB-231 [13] was “Non-toxic” each time. Moreover, at Neuropilin-1, the half-maximal inhibitory concentration (IC50) was 0.18 µM.
H-ATWLPPR-OH: the inhibition amounted to 14.6% in data set [2]; 61% in [6]; 2.9% in data set [7]; 38.1% in data set [10]; 24.4% in data set [11]. Further, the inhibition entry in data set [4] was “inactive”. For the same compound, the IC50 on Neuropilin-1 worked out at 5.86 µM.

(Values after ChEMBL document CHEMBL3797108, “Design, synthesis and in vitro biological evaluation of a small cyclic peptide as inhibitor of vascular endothelial growth factor binding to neuropilin-1” (Bioorg Med Chem Lett, 2016).)
